Results reported in patent US10800741B2 (ANCUREALL PHARMACEUTICAL (SHANGHAI) CO., LTD., priority 2017, dated 2020).
Read-outs that look alike come from different tables or passages of the source.

What was measured:
Assay in all cases: KINOMEscan in vitro binding to 468 labeled protein kinases
protein kinases [1] = target: T1, protein kinases (Homo sapiens, UniProt P00519, T315I); conditions: read-out: Test compound/solvent control (%); for remaining binding at 0.001 µM: 1 nM; for remaining binding at 0.01 µM: 10 nM; for remaining binding at 1 µM: 1000 nM
T1 construct: purchased Discovery X company (USA), KINOMEscan screening platform
Procedure, shortened: (§1)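 Competition binding across 468 labelled kinases on the KINOMEscan platform, compound tested at 1000 nM, 10 nM and 1 nM, duplicate samples. Result given as percentage of DMSO solvent control; lower percentage means stronger binding.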

protein kinases [2] = target: T2, protein kinases (Homo sapiens, UniProt P08922); conditions: ROS1, read-out: Test compound/solvent control (%)
T2 construct: purchased Discovery X company (USA), KINOMEscan screening platform
Procedure, shortened: as §1

protein kinases [3] = target: T3, protein kinases (Homo sapiens, UniProt P00519, H396P); conditions: read-out: Test compound/solvent control (%); for remaining binding at 0.001 µM: 1 nM; for remaining binding at 0.01 µM: 10 nM; for remaining binding at 1 µM: 1000 nM
T3 construct: purchased Discovery X company (USA), KINOMEscan screening platform
Procedure, shortened: as §1

protein kinases [4] = target: T4, protein kinases (Homo sapiens, UniProt P04629); conditions: TRKA (NTRK1), read-out: Test compound/solvent control (%)
T4 construct: purchased Discovery X company (USA), KINOMEscan screening platform
Procedure, shortened: as §1

protein kinases [5] = target: T5, protein kinases (Homo sapiens, UniProt P10721, V559D); conditions: KIT(V559D), read-out: Test compound/solvent control (%)
T5 construct: purchased Discovery X company (USA), KINOMEscan screening platform
Procedure, shortened: as §1

protein kinases [6] = target: T6, protein kinases (Homo sapiens, UniProt P36888, K663Q); conditions: FLT3(K663Q), read-out: Test compound/solvent control (%)
T6 construct: purchased Discovery X company (USA), KINOMEscan screening platform
T6 sequence (P36888 27-993 K663Q): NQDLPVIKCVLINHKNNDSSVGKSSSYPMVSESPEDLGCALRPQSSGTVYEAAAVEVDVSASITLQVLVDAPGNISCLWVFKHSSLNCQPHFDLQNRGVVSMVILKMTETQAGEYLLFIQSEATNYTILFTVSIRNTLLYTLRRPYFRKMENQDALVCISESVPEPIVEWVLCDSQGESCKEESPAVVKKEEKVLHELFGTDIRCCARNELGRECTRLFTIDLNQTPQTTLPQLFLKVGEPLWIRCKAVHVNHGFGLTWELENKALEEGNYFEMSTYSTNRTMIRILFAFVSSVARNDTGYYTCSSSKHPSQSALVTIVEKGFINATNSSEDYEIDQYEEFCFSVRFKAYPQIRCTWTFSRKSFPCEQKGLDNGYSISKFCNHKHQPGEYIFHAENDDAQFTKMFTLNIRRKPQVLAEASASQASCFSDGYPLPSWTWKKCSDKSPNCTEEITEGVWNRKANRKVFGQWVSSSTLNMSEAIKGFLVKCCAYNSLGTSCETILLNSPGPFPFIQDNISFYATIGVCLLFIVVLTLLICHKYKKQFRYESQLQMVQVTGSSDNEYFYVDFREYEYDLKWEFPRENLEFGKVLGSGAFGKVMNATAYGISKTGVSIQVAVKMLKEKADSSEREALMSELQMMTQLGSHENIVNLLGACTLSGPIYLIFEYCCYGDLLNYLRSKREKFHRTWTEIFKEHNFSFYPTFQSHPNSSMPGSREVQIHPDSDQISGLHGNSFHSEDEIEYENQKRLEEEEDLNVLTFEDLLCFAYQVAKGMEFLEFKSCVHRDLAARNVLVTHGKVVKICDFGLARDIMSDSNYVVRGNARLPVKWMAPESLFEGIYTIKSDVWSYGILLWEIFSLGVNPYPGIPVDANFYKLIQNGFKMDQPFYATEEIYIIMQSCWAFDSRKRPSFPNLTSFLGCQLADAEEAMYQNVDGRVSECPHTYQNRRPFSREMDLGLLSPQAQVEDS
Procedure, shortened: as §1

protein kinases [7] = target: T7, protein kinases (Homo sapiens, UniProt P00533, T790M); conditions: EGFR(T790M)
T7 construct: purchased Discovery X company (USA), KINOMEscan screening platform
T7 sequence (P00533 25-1210 T790M): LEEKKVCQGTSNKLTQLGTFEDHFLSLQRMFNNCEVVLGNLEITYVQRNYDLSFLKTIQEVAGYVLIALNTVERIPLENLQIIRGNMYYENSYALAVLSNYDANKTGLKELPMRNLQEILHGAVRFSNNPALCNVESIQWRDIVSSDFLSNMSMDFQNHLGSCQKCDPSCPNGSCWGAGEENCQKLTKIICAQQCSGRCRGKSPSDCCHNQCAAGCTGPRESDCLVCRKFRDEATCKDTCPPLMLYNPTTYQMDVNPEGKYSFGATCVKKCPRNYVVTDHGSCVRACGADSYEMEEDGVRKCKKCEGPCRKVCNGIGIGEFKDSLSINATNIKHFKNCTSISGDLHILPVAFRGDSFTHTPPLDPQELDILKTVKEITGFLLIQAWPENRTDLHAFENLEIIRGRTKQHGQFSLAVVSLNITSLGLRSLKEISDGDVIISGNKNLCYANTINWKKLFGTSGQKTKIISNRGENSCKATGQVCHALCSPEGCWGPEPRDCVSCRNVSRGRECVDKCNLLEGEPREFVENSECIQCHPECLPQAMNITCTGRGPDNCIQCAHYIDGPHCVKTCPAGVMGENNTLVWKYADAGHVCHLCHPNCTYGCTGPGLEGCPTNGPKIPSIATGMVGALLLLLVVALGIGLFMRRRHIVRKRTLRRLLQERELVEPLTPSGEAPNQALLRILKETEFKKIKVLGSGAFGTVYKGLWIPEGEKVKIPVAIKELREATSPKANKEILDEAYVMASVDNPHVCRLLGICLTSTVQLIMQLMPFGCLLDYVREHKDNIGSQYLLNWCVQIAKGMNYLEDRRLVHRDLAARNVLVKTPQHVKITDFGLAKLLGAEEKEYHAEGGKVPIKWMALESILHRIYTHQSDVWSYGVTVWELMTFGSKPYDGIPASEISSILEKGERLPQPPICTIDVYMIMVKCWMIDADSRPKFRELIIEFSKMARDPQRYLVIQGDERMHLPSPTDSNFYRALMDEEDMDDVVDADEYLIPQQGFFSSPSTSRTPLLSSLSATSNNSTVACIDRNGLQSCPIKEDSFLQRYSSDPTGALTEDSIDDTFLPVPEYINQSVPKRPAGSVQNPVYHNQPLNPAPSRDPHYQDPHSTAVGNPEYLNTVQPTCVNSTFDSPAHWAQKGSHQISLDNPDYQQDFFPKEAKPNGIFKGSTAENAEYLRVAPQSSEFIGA
Procedure, shortened: as §1

protein kinases [8] = target: T8, protein kinases (Homo sapiens, UniProt P21802); conditions: FGFR2, read-out: Test compound/solvent control (%)
T8 construct: purchased Discovery X company (USA), KINOMEscan screening platform
Procedure, shortened: as §1

protein kinases [9] = target: T9, protein kinases (Homo sapiens, UniProt P00519, Y253F); conditions: ABL1(Y253F)-phosphorylated, read-out: Test compound/solvent control (%)
T9 construct: purchased Discovery X company (USA), KINOMEscan screening platform
Procedure, shortened: as §1

protein kinases [10] = target: T10, protein kinases (Homo sapiens, UniProt P00533, L861Q); conditions: EGFR(L861Q)
T10 construct: purchased Discovery X company (USA), KINOMEscan screening platform
T10 sequence (P00533 25-1210 L861Q): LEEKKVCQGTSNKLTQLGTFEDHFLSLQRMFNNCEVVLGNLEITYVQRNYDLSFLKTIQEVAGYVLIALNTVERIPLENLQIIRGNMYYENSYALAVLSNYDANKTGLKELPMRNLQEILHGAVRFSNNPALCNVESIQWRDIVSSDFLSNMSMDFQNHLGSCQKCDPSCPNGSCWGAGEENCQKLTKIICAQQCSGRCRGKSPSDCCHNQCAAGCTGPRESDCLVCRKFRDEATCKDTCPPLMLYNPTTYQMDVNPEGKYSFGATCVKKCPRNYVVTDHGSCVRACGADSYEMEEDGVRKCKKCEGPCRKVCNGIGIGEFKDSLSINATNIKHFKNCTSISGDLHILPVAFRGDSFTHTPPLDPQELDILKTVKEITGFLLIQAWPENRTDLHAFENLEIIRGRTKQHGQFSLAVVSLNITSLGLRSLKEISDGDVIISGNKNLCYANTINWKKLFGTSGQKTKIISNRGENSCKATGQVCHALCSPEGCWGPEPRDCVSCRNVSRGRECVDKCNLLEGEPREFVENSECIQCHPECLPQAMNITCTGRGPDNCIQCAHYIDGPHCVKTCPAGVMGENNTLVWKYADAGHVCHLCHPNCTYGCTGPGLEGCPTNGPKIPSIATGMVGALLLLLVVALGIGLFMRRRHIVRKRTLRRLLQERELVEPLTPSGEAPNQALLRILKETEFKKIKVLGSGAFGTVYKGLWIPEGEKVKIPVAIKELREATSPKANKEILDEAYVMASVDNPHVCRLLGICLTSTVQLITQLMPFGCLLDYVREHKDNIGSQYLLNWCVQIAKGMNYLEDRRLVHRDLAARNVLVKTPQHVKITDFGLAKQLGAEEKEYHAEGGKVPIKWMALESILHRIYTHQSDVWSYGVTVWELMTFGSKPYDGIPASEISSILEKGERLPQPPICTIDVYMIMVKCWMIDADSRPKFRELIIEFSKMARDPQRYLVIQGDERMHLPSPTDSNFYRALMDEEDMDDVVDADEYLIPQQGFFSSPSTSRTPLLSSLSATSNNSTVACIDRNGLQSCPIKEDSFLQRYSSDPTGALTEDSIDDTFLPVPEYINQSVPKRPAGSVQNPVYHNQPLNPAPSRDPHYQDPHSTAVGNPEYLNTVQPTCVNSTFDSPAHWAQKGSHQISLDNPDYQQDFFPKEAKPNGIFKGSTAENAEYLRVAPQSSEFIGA
Procedure, shortened: as §1

protein kinases [11] = target: T11, protein kinases (Homo sapiens, UniProt P07949, M918T); conditions: RET(M918T), read-out: Test compound/solvent control (%)
T11 construct: purchased Discovery X company (USA), KINOMEscan screening platform
T11 sequence (P07949 29-1114 M918T): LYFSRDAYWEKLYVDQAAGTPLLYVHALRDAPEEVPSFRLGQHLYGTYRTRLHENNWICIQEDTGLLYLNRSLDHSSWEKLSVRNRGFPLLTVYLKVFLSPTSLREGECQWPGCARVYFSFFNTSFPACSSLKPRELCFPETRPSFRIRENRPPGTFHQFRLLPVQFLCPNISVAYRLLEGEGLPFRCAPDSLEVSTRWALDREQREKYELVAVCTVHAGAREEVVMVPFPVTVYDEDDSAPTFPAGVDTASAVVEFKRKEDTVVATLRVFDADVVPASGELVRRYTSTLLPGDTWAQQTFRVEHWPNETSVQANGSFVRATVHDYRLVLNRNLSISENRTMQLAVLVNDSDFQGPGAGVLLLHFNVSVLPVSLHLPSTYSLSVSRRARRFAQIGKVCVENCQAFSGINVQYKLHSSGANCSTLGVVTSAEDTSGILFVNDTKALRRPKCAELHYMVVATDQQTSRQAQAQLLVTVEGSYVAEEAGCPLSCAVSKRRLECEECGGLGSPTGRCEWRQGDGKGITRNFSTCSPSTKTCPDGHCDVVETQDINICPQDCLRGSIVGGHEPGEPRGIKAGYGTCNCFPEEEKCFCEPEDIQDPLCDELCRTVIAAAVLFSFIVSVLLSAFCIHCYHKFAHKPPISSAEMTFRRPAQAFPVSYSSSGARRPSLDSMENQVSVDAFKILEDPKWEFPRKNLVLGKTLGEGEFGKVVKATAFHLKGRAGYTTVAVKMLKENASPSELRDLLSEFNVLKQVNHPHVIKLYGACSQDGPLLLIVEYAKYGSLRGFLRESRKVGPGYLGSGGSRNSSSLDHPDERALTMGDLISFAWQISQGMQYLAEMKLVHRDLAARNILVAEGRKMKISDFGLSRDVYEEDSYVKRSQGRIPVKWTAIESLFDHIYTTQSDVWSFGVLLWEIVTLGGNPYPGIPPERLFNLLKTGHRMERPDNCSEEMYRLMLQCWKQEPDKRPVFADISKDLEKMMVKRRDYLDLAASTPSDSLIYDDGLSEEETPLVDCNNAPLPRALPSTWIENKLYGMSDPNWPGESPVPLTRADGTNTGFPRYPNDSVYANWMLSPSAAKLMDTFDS
Procedure, shortened: as §1

protein kinases [12] = target: T12, protein kinases (Homo sapiens, UniProt P22607, G697C); conditions: FGFR3(G697C), read-out: Test compound/solvent control (%)
T12 construct: purchased Discovery X company (USA), KINOMEscan screening platform
T12 sequence (P22607 23-806 G697C): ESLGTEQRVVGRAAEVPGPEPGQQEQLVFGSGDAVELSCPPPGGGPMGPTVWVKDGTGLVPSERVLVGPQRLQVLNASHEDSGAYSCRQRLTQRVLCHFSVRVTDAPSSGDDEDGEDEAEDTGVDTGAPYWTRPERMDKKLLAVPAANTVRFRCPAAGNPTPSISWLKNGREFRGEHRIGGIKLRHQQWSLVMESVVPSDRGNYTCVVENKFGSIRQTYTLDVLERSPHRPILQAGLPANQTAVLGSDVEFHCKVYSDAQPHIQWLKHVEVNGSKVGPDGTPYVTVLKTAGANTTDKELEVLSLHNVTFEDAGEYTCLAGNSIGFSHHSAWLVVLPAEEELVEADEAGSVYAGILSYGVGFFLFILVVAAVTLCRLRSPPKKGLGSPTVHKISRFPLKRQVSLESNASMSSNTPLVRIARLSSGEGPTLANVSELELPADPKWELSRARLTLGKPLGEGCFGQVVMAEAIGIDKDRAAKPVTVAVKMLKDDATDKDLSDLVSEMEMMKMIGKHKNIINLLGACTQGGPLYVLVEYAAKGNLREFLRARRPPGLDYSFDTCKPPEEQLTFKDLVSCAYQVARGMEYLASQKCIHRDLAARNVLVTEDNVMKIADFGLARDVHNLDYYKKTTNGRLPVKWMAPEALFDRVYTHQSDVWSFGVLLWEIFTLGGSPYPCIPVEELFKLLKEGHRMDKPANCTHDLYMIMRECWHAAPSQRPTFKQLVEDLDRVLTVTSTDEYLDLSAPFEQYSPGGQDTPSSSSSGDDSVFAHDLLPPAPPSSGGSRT
Procedure, shortened: as §1

protein kinases [13] = target: T13, protein kinases (Homo sapiens, UniProt P06241); conditions: FYN, read-out: Test compound/solvent control (%)
T13 construct: purchased Discovery X company (USA), KINOMEscan screening platform
T13 sequence (P06241 whole entry): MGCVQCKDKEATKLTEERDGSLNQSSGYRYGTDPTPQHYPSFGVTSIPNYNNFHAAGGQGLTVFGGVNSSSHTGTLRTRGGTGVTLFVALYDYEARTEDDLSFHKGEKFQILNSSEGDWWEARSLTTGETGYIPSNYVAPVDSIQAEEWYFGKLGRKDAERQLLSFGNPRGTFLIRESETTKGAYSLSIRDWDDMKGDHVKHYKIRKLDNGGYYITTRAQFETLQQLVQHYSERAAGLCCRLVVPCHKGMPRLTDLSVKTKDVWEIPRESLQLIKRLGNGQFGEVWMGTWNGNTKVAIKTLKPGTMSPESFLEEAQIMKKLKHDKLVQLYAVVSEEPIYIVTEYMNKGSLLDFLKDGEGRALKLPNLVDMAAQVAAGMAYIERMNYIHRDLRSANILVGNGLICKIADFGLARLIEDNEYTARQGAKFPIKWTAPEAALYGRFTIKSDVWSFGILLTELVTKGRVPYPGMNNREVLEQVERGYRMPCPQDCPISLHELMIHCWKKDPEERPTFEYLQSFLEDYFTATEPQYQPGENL
Procedure, shortened: as §1

remaining binding at 0.001 µM (protein kinases [1]; ABL1(T315I)-phosphorylated): 100%
remaining binding at 0.01 µM (protein kinases [1]; ABL1(T315I)-phosphorylated): 34%
remaining binding at 1 µM (protein kinases [1]; ABL1(T315I)-phosphorylated): 0.45%
remaining binding at 0.001 µM (protein kinases [1]; ABL1(T315I)-unphosphorylated): 96%
remaining binding at 0.01 µM (protein kinases [1]; ABL1(T315I)-unphosphorylated): 32%
remaining binding at 1 µM (protein kinases [1]; ABL1(T315I)-unphosphorylated): 0.15%
remaining binding at 0.001 µM (protein kinases [2]; 1 nM): 85%
remaining binding at 0.01 µM (protein kinases [2]; 10 nM): 17%
remaining binding at 1 µM (protein kinases [2]; 1000 nM): 4.6%
remaining binding at 0.001 µM (protein kinases [3]; ABL1(H396P)-phosphorylated): 55%
remaining binding at 0.01 µM (protein kinases [3]; ABL1(H396P)-phosphorylated): 9.7%
remaining binding at 1 µM (protein kinases [3]; ABL1(H396P)-phosphorylated): 0%
remaining binding at 0.001 µM (protein kinases [3]; ABL1(H396P)-unphosphorylated): 27%
remaining binding at 0.01 µM (protein kinases [3]; ABL1(H396P)-unphosphorylated): 1.8%
remaining binding at 1 µM (protein kinases [3]; ABL1(H396P)-unphosphorylated): 0.05%
remaining binding at 0.001 µM (protein kinases [4]; 1 nM): 48%
remaining binding at 0.01 µM (protein kinases [4]; 10 nM): 5.5%
remaining binding at 1 µM (protein kinases [4]; 1000 nM): 0.2%
remaining binding at 0.001 µM (protein kinases [5]; 1 nM): 82%
remaining binding at 0.01 µM (protein kinases [5]; 10 nM): 18%
remaining binding at 1 µM (protein kinases [5]; 1000 nM): 0%
remaining binding at 0.001 µM (protein kinases [6]; 1 nM): 89%
remaining binding at 0.01 µM (protein kinases [6]; 10 nM): 22%
remaining binding at 1 µM (protein kinases [6]; 1000 nM): 3.2%
Test compound/solvent control (%) (protein kinases [7]; 1 nM): 83%
Test compound/solvent control (%) (protein kinases [7]; 10 nM): 19%
Test compound/solvent control (%) (protein kinases [7]; 1000 nM): 0.2%
remaining binding at 0.001 µM (protein kinases [8]; 1 nM): 93%
remaining binding at 0.01 µM (protein kinases [8]; 10 nM): 71%
remaining binding at 1 µM (protein kinases [8]; 1000 nM): 0.25%
remaining binding at 0.001 µM (protein kinases [9]; 1 nM): 80%
remaining binding at 0.01 µM (protein kinases [9]; 10 nM): 11%
remaining binding at 1 µM (protein kinases [9]; 1000 nM): 0.1%
Test compound/solvent control (%) (protein kinases [10]; 1 nM): 73%
Test compound/solvent control (%) (protein kinases [10]; 10 nM): 9.5%
Test compound/solvent control (%) (protein kinases [10]; 1000 nM): 0%
remaining binding at 0.001 µM (protein kinases [11]; 1 nM): 78%
remaining binding at 0.01 µM (protein kinases [11]; 10 nM): 8.5%
remaining binding at 1 µM (protein kinases [11]; 1000 nM): 0%
remaining binding at 0.001 µM (protein kinases [12]; 1 nM): 81%
remaining binding at 0.01 µM (protein kinases [12]; 10 nM): 54%
remaining binding at 1 µM (protein kinases [12]; 1000 nM): 0.05%
remaining binding at 0.001 µM (protein kinases [13]; 1 nM): 94%
remaining binding at 0.01 µM (protein kinases [13]; 10 nM): 41%
remaining binding at 1 µM (protein kinases [13]; 1000 nM): 0%
Structure (SMILES): COCCOc1cc2nccc(Oc3ccc(NC(=O)Nc4cc(C(C)(C)C)n[nH]4)c(Cl)c3)c2cc1NC(C)=O [Compound 66, N-[4-{4-[3-(5-tert-butyl-2H-pyrazol-3-yl)-ureido]-3-chloro-phenoxy}-7-(2-methoxy-ethoxy)-quinolin-6-yl]-acetamide]
